Assay results from patent US9278981B2, “Compounds and compositions for inhibiting the activity of ABL1, ABL2 and BCR-ABL1” (Novartis AG, priority 2012, dated 2016).

Each compound was assayed against ABL1 (64-515) (Homo sapiens (Human), UniProt P00519) (assay: Radio ABL1 (64-515) assay (radiometric filter-binding)).
Format: biochemical

Sequence of ABL1 (64-515) (P00519 64-515): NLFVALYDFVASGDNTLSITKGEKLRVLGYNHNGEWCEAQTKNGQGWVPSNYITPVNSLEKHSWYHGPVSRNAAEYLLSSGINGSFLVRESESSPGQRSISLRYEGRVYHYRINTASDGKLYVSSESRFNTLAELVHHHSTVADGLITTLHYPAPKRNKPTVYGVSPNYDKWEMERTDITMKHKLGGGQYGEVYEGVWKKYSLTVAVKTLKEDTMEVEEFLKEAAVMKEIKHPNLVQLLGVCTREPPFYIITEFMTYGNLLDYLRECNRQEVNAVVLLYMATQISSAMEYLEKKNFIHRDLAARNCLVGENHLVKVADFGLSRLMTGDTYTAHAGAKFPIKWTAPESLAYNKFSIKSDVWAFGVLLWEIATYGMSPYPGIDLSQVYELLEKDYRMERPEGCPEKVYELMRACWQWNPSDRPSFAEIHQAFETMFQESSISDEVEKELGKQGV

**Q.** Which IC50 does the source give for `COc1ncc(-c2cc(C(=O)Nc3ccc(OC(F)(F)F)cc3)cnc2N2CCC(O)C2)cn1` (centres unmarked) [Example 28, 6-(3-Hydroxypyrrolidin-1-yl)-5-(2-methoxypyrimidin-5-yl)-N-(4-(trifluoromethoxy)phenyl)nicotinamide] here?
**A.** < 3 nM

**Q.** Which IC50 does the source give for `Cc1ccc(-c2cc(C(=O)Nc3ccc(OC(F)(F)F)cc3)cnc2N2CC[C@@H](CN)C2)cn1` [Example 110, (S)-2-(3-(Aminomethyl)pyrrolidin-1-yl)-6′-methyl-N-(4-(trifluoromethoxy)phenyl)-[3,3′-bipyridine]-5-carboxamide] here?
**A.** 5 nM

**Q.** `CN[C@@H]1CCN(c2ncc(C(=O)Nc3ccc(OC(F)(F)F)cc3)cc2-c2cccnc2)C1` [Example 100, (R)-2-(3-(Methylamino)pyrrolidin-1-yl)-N-(4-(trifluoromethoxy)phenyl)-[3,3′-bipyridine]-5-carboxamide] was tested. Which IC50 did it give?
**A.** < 3 nM

**Q.** Which IC50 does the source give for `O=C(Nc1ccc(OC(F)(F)F)cc1)c1cnc(N2CC[C@@H](O)C2)c(-c2ccc3nccnc3c2)c1` [Example 64, (R)-6-(3-Hydroxypyrrolidin-1-yl)-5-(quinoxalin-6-yl)-N-(4-(trifluoromethoxy)phenyl)nicotinamide] here?
**A.** < 3 nM

**Q.** How did the IC50 turn out when `Cc1ncc(-c2cc(C(=O)Nc3ccc(OC(F)(F)F)cc3)cnc2N2CC[C@@H](O)C2)cn1` [Example 36, (R)-6-(3-Hydroxypyrrolidin-1-yl)-5-(2-methylpyrimidin-5-yl)-N-(4-(trifluoromethoxy)phenyl)nicotinamide] was run?
**A.** < 3 nM

**Q.** Which IC50 does the source give for `CN(C)CCCN(C)c1ncc(C(=O)Nc2ccc(OC(F)(F)F)cc2)cc1-c1cccnc1` [Example 168, 2-((3-(Dimethylamino)propyl)(methyl)amino)-N-(4-(trifluoromethoxy)phenyl)-[3,3′-bipyridine]-5-carboxamide] here?
**A.** < 3 nM

**Q.** `CN1CCCN(c2ncc(C(=O)Nc3ccc(OC(F)(F)F)cc3)cc2-c2cccnc2)CC1` [Example 146, 2-(4-Methyl-1,4-diazepan-1-yl)-N-(4-(trifluoromethoxy)phenyl)-[3,3′-bipyridine]-5-carboxamide] was tested. Which IC50 did it give?
**A.** < 3 nM

**Q.** With `Cc1ccc(-c2cc(C(=O)Nc3ccc(OC(F)(F)F)cc3)cnc2N(C)CCO)cn1` [Example 153, 2-((2-Hydroxyethyl)(methyl)amino)-6′-methyl-N-(4-(trifluoromethoxy)phenyl)-[3,3′-bipyridine]-5-carboxamide] as the compound, how does the IC50 read?
**A.** < 3 nM

**Q.** `O=C(Nc1ccc(OC(F)(F)F)cc1)c1cnc(N2CCCC2)c(-c2cncnc2)c1` [Example 67, 5-(Pyrimidin-5-yl)-6-(pyrrolidin-1-yl)-N-(4-(trifluoromethoxy)phenyl)nicotinamide] was tested. Which IC50 did it give?
**A.** < 3 nM

**Q.** For `O=C(Nc1ccc(OC(F)(F)F)cc1)c1cnc(N2CC[C@@H](O)C2)c(-c2cncc(C(F)(F)F)c2)c1` [Example 234, (R)-2-(3-Hydroxypyrrolidin-1-yl)-N-(4-(trifluoromethoxy)phenyl)-5′-(trifluoromethyl)-[3,3′-bipyridine]-5-carboxamide], which IC50 is on record?
**A.** 19 nM

**Q.** For `NC[C@@H]1CCN(c2ncc(C(=O)Nc3ccc(OC(F)(F)F)cc3)cc2-c2cccnc2)C1` [Example 109, (S)-2-(3-(Aminomethyl)pyrrolidin-1-yl)-N-(4-(trifluoromethoxy)phenyl)-[3,3′-bipyridine]-5-carboxamide], which IC50 is on record?
**A.** < 3 nM

**Q.** `O=C(Nc1ccc(OC(F)(F)F)cc1)c1cnc(N2CC(CO)C2)c(-c2cnc(Cl)c(F)c2)c1` [Example 141, 6′-Chloro-5′-fluoro-2-(3-(hydroxymethyl)azetidin-1-yl)-N-(4-(trifluoromethoxy)phenyl)-[3,3′-bipyridine]-5-carboxamide] was tested. Which IC50 did it give?
**A.** 6 nM

**Q.** Which IC50 does the source give for `O=C(Nc1ccc(OC(F)(F)F)cc1)c1cnc(N2CC[C@@H](O)C2)c(-c2cccc(CO)c2)c1` [Example 59, (R)-5-(3-(Hydroxymethyl)phenyl)-6-(3-hydroxypyrrolidin-1-yl)-N-(4-(trifluoromethoxy)phenyl)nicotinamide] here?
**A.** 6 nM

**Q.** With `O=C(Nc1ccc(OC(F)(F)F)cc1)c1cnc(N2CCC3(CCNC3=O)C2)c(-c2cncnc2)c1` (centres unmarked) [Example 17] as the compound, how does the IC50 read?
**A.** < 3 nM

**Q.** With `O=C(Nc1ccc(OC(F)(F)F)cc1)c1cnc(N2CCC(O)C2)c(-c2ccc(C(F)(F)F)nc2)c1` (centres unmarked) [Example 32, 2-(3-Hydroxypyrrolidin-1-yl)-N-(4-(trifluoromethoxy)phenyl)-6′-(trifluoromethyl)-[3,3′-bipyridine]-5-carboxamide] as the compound, how does the IC50 read?
**A.** < 3 nM

**Q.** With `O=C(Nc1ccc(OC(F)(F)F)cc1)c1cnc(N2CC[C@@H](O)C2)c(-c2ccc3ccncc3c2)c1` [Example 63, (R)-6-(3-Hydroxypyrrolidin-1-yl)-5-(isoquinolin-7-yl)-N-(4-(trifluoromethoxy)phenyl)nicotinamide] as the compound, how does the IC50 read?
**A.** 4 nM

**Q.** How did the IC50 turn out when `Cc1ncc(-c2cc(C(=O)Nc3ccc(OC(F)(F)F)cc3)cnc2N2CC(CO)C2)cn1` [Example 136, 6-(3-(Hydroxymethyl)azetidin-1-yl)-5-(2-methylpyrimidin-5-yl)-N-(4-(trifluoromethoxy)phenyl)nicotinamide] was run?
**A.** < 3 nM

**Q.** With `CN1CC2CN(c3ncc(C(=O)Nc4ccc(OC(F)(F)F)cc4)cc3-c3cncnc3)CC2C1` (centres unmarked) [Example 16] as the compound, how does the IC50 read?
**A.** < 3 nM

**Q.** How did the IC50 turn out when `CCc1ccc(-c2cc(C(=O)Nc3ccc(OC(F)(F)F)cc3)cnc2N2CC[C@H](CO)C2)cn1` [Example 83, (S)-6′-Ethyl-2-(3-(hydroxymethyl)pyrrolidin-1-yl)-N-(4-(trifluoromethoxy)phenyl)-[3,3′-bipyridine]-5-carboxamide] was run?
**A.** 11 nM

**Q.** How did the IC50 turn out when `CC(=O)NC1CCCN(c2ncc(C(=O)Nc3ccc(OC(F)(F)F)cc3)cc2-c2cncnc2)C1` (centres unmarked) [Example 20] was run?
**A.** < 3 nM

**Q.** With `COc1ncc(-c2cc(C(=O)Nc3ccc(OC(F)(F)F)cc3)cnc2N2CC[C@@H](O)C2)cn1` [Example 37, (R)-6-(3-Hydroxypyrrolidin-1-yl)-5-(2-methoxypyrimidin-5-yl)-N-(4-(trifluoromethoxy)phenyl)nicotinamide] as the compound, how does the IC50 read?
**A.** 3 nM

**Q.** Which IC50 does the source give for `N#C[C@@H]1CCCN(c2ncc(C(=O)Nc3ccc(OC(F)(F)F)cc3)cc2-c2cncnc2)C1` [Example 23] here?
**A.** < 3 nM

**Q.** With `N[C@H]1CCN(c2ncc(C(=O)Nc3ccc(OC(F)(F)F)cc3)cc2-c2cccnc2)C1` [Example 97, (S)-2-(3-Aminopyrrolidin-1-yl)-N-(4-(trifluoromethoxy)phenyl)-[3,3′-bipyridine]-5-carboxamide] as the compound, how does the IC50 read?
**A.** < 3 nM

**Q.** Which IC50 does the source give for `O=C(Nc1ccc(OC(F)(F)F)cc1)c1cnc(N2Cc3ccncc3C2)c(-c2cncnc2)c1` [Example 18] here?
**A.** < 3 nM

**Q.** Which IC50 does the source give for `Cc1ccc(-c2cc(C(=O)Nc3ccc(OC(F)(F)F)cc3)cnc2N2CCC(O)C2)cn1` (centres unmarked) [Example 30, 2-(3-Hydroxypyrrolidin-1-yl)-6′-methyl-N-(4-(trifluoromethoxy)phenyl)-[3,3′-bipyridine]-5-carboxamide] here?
**A.** < 3 nM

**Q.** How did the IC50 turn out when `NC(=O)C1CCN(c2ncc(C(=O)Nc3ccc(OC(F)(F)F)cc3)cc2-c2cncnc2)CC1` [Example 21] was run?
**A.** 13 nM

**Q.** `CC1(O)CCN(c2ccc(C(=O)Nc3ccc(OC(F)(F)F)cc3)cc2-c2cncnc2)C1` (centres unmarked) [Example 11, 4-(3-Hydroxy-3-methylpyrrolidin-1-yl)-3-(pyrimidin-5-yl)-N-(4-(trifluoromethoxy)phenyl)benzamide] was tested. Which IC50 did it give?
**A.** < 3 nM

**Q.** For `CN(C)C1CCN(c2ncc(C(=O)Nc3ccc(OC(F)(F)F)cc3)cc2-c2cncnc2)C1` (centres unmarked) [Example 112, 6-(3-(Dimethylamino)pyrrolidin-1-yl)-5-(pyrimidin-5-yl)-N-(4-(trifluoromethoxy)phenyl)nicotinamide], which IC50 is on record?
**A.** < 3 nM

**Q.** How did the IC50 turn out when `CN[C@H]1CCN(c2ncc(C(=O)Nc3ccc(OC(F)(F)F)cc3)cc2-c2ccc(C)nc2)C1` [Example 104, (S)-6′-Methyl-2-(3-(methylamino)pyrrolidin-1-yl)-N-(4-(trifluoromethoxy)phenyl)-[3,3′-bipyridine]-5-carboxamide] was run?
**A.** 3 nM

**Q.** For `O=C(Nc1ccc(OC(F)(F)F)cc1)c1cnc(N2CCCNCC2)c(-c2cccnc2)c1` [Example 145, 2-(1,4-Diazepan-1-yl)-N-(4-(trifluoromethoxy)phenyl)-[3,3′-bipyridine]-5-carboxamide], which IC50 is on record?
**A.** 4 nM

**Q.** How did the IC50 turn out when `O=C(Nc1ccc(OC(F)(F)F)cc1)c1cnc(N2CCCC(CO)C2)c(-c2cncnc2)c1` (centres unmarked) [Example 19] was run?
**A.** < 3 nM

**Q.** Which IC50 does the source give for `N#Cc1ncc(-c2cc(C(=O)Nc3ccc(OC(F)(F)F)cc3)cnc2N2CC[C@H](CO)C2)cn1` [Example 80, (S)-5-(2-Cyanopyrimidin-5-yl)-6-(3-(hydroxymethyl)pyrrolidin-1-yl)-N-(4-(trifluoromethoxy)phenyl)nicotinamide] here?
**A.** 5 nM

**Q.** Which IC50 does the source give for `O=C(Nc1ccc(OC(F)(F)F)cc1)c1cnc(N2CC[C@H](CO)C2)c(-c2ccc(C3CC3)nc2)c1` [Example 85, (S)-6′-Cyclopropyl-2-(3-(hydroxymethyl)pyrrolidin-1-yl)-N-(4-(trifluoromethoxy)phenyl)-[3,3′-bipyridine]-5-carboxamide] here?
**A.** 26 nM

**Q.** With `Cc1ccc(-c2cc(C(=O)Nc3ccc(OC(F)(F)F)cc3)cnc2N2CCC(C(C)(C)O)C2)cn1` (centres unmarked) [Example 115, 2-(3-(2-Hydroxypropan-2-yl)pyrrolidin-1-yl)-6′-methyl-N-(4-(trifluoromethoxy)phenyl)-[3,3′-bipyridine]-5-carboxamide] as the compound, how does the IC50 read?
**A.** 16 nM

**Q.** `O=C(Nc1ccc(OC(F)(F)F)cc1)c1cnc(N2CCC(O)CC2)c(-c2cncnc2)c1` [Example 22] was tested. Which IC50 did it give?
**A.** < 3 nM

**Q.** With `CN[C@@H]1CCN(c2ncc(C(=O)Nc3ccc(OC(F)(F)F)cc3)cc2-c2ccc(C)nc2)C1` [Example 101, (R)-6′-Methyl-2-(3-(methylamino)pyrrolidin-1-yl)-N-(4-(trifluoromethoxy)phenyl)-[3,3′-bipyridine]-5-carboxamide] as the compound, how does the IC50 read?
**A.** < 3 nM

**Q.** With `Cc1ccc(-c2cc(C(=O)Nc3ccc(OC(F)(F)F)cc3)cnc2N2CC[C@H](CN)C2)cn1` [Example 107, (R)-2-(3-(Aminomethyl)pyrrolidin-1-yl)-6′-methyl-N-(4-(trifluoromethoxy)phenyl)-[3,3′-bipyridine]-5-carboxamide] as the compound, how does the IC50 read?
**A.** < 3 nM

**Q.** With `Cc1ncc(-c2cc(C(=O)Nc3ccc(OC(F)(F)F)cc3)ccc2N2CC[C@@H](O)C2)cn1` [Example 3, (R)-4-(3-Hydroxypyrrolidin-1-yl)-3-(2-methylpyrimidin-5-yl)-N-(4-(trifluoromethoxy)phenyl)benzamide] as the compound, how does the IC50 read?
**A.** < 3 nM
